Results published in patent US20120276064A1, “METHODS AND COMPOSITIONS FOR REJUVENATION AND EXPANSION OF STEM CELLS” (priority 2011, published 2012).

Test system: p38 signaling (phosphorylation of the p38 substrate MK2)
Test: Phospho-MK2 flow cytometry in primary myoblasts stimulated with anisomycin and TNF
Assay type: cell-based
Conditions: primary mouse myoblasts, 10 μM pretreatment one hour, anisomycin 1 μg/ml + TNF 50 ng/ml 30 min
Protocol: Phospho-MK2 flow cytometry. To analyze p38 signaling, the phosphorylation of MK2, a readout of p38 kinase activity, was assayed by flow cytometry. Primary mouse myoblasts were isolated as previously described. Myoblasts were cultured on collagen-coated tissue-culture plastic dishes in myogenic cell medium and were maintained at 37° C. in 5% CO2. Myoblasts were pretreated with 0.1% DMSO carrier control or 10 μM SB202190 for one-hour and then were stimulated with anisomycin (1 μg/ml; Sigma) and TNF (50 ng/ml; R&D Systems, Minneapolis, Minn.) for 30 minutes or mock buffer (PBS). Pretreatments and stimuli were added in 50× spike solutions. After 15 minutes, cells were collected from hydrogel cultures by incubation 0.5% trypsin in PBS for 2 min at 37° C. Cells were fixed with 1.5% paraformaldehyde in PBS, permeabilized in methanol at −80° C., and stained with an AlexFluor488-conjugated antibody reactive to the phosphorylated (Thr334) form of MK2 (Cell Signaling). Cells were analyzed for phospho-MK2 positivity on a modified FACStar Plus flow cytometer using FACS Diva software (BD Biosciences).

SMILES: Oc1ccc(-c2nc(-c3ccncc3)c(-c3ccc(F)cc3)[nH]2)cc1 [SB202190]
- p38 signaling activity / MK2 phosphorylation: prevents MK2 phosphorylation
- p38 signaling activity / MK2 phosphorylation (listed as SB): substantially attenuated p38 signaling activity
